Measurements: patent US20080014253A1, “Lipid-Based Drug Delivery Systems Containing Unnatural Phospholipase A2 Degradable Lipid Derivatives and the Therapeutic Uses Thereof” (priority 2004, published 2008)

Target: T1, PLA2 (A. piscivorus piscivorus) (Agkistrodon piscivorus piscivorus, UniProt P51972)
T1 sequence (P51972 1-123): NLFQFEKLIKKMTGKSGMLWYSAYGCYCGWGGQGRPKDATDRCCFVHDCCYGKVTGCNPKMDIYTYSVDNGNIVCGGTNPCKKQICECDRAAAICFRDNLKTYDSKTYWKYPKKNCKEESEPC
Assay: PLA2 hydrolysis of unilamellar liposomes (lag time, degree of lipid hydrolysis by HPLC)
Format: biochemical
Conditions: for degree of PLA2 lipid hydrolysis: 1000 s after the unset of the burst, HPLC, broad temperature range
Method: FIG. 4. Characteristic reaction time profiles at 40° C. for PLA2 hydrolysis of unilamellar. (A) 0.15 mM 1-O-DPPC′ liposomes incubated with 150 nM PLA2 (A. piscivorus piscivorus). (B) 0.15 mM 1-O-DPPG′ liposomes incubated with human secretory PLA2 from 20 μL freshly prepared human tear fluid (B). The PLA2 hydrolysis reaction is monitored by intrinsic fluorescence (solid line) from the enzyme and 90° static light scattering (dashed lines) from the lipid suspension. After adding PLA2 to the equilibrated liposome suspension a characteristic lag time, τ, follows before a sudden increase in the catalytic activity takes place (A).
FIG. 5. PLA2 (A. piscivorus piscivorus) lag time, τ, as a function of temperature for the hydrolysis of 1-O-DPPC′ unilamellar liposomes incorporated with 0 mol % (▪), 2 mol % (▴), and 10 mol % (∘) 1-O-DPPG′ lipids, and 5 mol % (V) DSPE-PEG2000 polymer lipids. The concentration of the liposomes was 0.15 mM and the concentration of PLA2 was 150 nM.
FIG. 6. (A) PLA2 (A. piscivorus piscivorus) hydrolysis of 1-O-DPPC′ liposomes containing 0 mol % (▪), 2 mol % (▴), and 10 mol % (∘) 1-O-DPPG′ lipids, and 5 mol % (▾) DSPE-PEG2000 polymer lipids determined by HPLC [28]. The percent lipid hydrolysis is determined 1000 s after the unset of the burst. The concentration of the liposomes was 0.15 mM and the concentration of PLA2 was 150 nM. (B) Hydrolysis of 1-O-DPPG′ unilamellar liposomes determined by HPLC [28]. The PLA2 catalyzed lipid hydrolysis is determined as a function of time after addition of 20 μL freshly prepared human tear fluid to 0.15 mM 1-O-DPPG′ liposomes.
By replacing the ester linkage in the C-1 position with an ether bond, these unnatural phospholipids can furthermore be used as novel prodrug anticancer lipids to make liposomal microcarriers that can be degraded to active anticancer lysoetherlipids by PLA2 [27]. […] The PLA2 lag time measurements on 1-O-DPPC′ unilamellar liposomes incorporated with small amounts of 1-O-DPPG′ or DSPE-PEG2000 lipids were performed in the gel-to-fluid main phase transition range and the degree of lipid hydrolysis was analyzed using HPLC techniques.
Typical PLA2 (A. piscivorus piscivorus) hydrolysis time course profiles obtained at 40° C. are shown in FIG. 4 for 1-O-DPPC′ and 1-O-DPPG′ unilamellar liposomes. […] The rapid increase in PLA2 activity is reflected by a sharp rise in the intrinsic PLA2 tryptophan fluorescence intensity followed by a concomitant decrease in the 90° static light scattering caused by a change in the morphology of the lipid system when a large amount of the phospholipids are converted to non-bilayer forming lysolipids and free fatty acids. […] Both the fluorescence and light scattering data clearly indicate that the unnatural phospholipids are excellent substrates for PLA2 catalyzed hydrolysis. […]

## CCCCCCCCCCCCCCCCOC[C@@H](COC(=O)CCCCCCCCCCCCCCC)OP(=O)([O-])OCC[N+](C)(C)C [1-O-DPPC′, (S)-1-O-hexadecyl-3-hexadecanoyl-glycero-2-phosphocholine]
0.15 mM unilamellar liposomes, 150 nM PLA2, 40° C.
  PLA2 lag time, τ: observed
1-O-DPPC′ liposomes incorporated with 5 mol % DPPE-PEG2000 lipopolymers
  PLA2 lag time: very short lag time
  degree of PLA2 lipid hydrolysis: remarkably high degree of lipid hydrolysis

## (S)-1-O-hexadecyl-3-hexadecanoyl-glycero-2-phosphoglycerol [1-O-DPPG′]
  degree of PLA2 lipid hydrolysis: remarkably high degree of lipid hydrolysis
